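1) Cells in 96-well plates. 2) Compound, 48 h, 5 concentrations. 3) Linear interpolation between surrounding doses. 4) Unreached endpoint = highest concentration. Definition used: TGI = concentration required for complete inhibition of growth.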
How the values were obtained:
Assay in all cases: DTP human tumour cell line panel, 48 h
[1] = tested on: RPMI-8226 leukemia
[2] = tested on: HOP-62 NSCLC
[3] = tested on: HCT-116 colon
[4] = tested on: HCT-15 colon
[5] = tested on: EKVX NSCLC
[6] = tested on: NCI-H23 lung
[7] = tested on: OVCAR-3 ovarian
[8] = tested on: RXF 393 renal
[9] = tested on: HOP-92 NSCLC
[10] = tested on: MDA-N
[11] = tested on: A549 NSCLC
[12] = tested on: SNB-19 CNS
[13] = tested on: HS 578T breast
[14] = tested on: BT-549 breast
[15] = tested on: CAKI-1 renal
[16] = tested on: KM12 colon
[17] = tested on: OVCAR-8 ovarian
[18] = tested on: SK-MEL-28 melanoma
[19] = tested on: SK-MEL-2 melanoma
[20] = tested on: COLO 205 colon
[21] = tested on: M14 melanoma
[22] = tested on: SW-620 colon
[23] = tested on: SF-295 CNS
[24] = tested on: SF-268 CNS
[25] = tested on: 786-0 renal
[26] = tested on: TK-10 renal
[27] = tested on: HT29 colon
[28] = tested on: DU-145 prostate
[29] = tested on: MALME-3M melanoma
[30] = tested on: SNB-75 CNS
[31] = tested on: SK-OV-3 ovarian
[32] = tested on: MDA-MB-435
[33] = tested on: U251 CNS
[34] = tested on: OVCAR-4 ovarian
[35] = tested on: K-562 leukemia
[36] = tested on: A498 renal
[37] = tested on: OVCAR-5 ovarian
[38] = tested on: LOX IMVI melanoma
[39] = tested on: NCI-H460 lung
[40] = tested on: MOLT-4 leukemia
[41] = tested on: UACC-257 melanoma
[42] = tested on: UACC-62 melanoma
[43] = tested on: NCI-H522 lung
[44] = tested on: UO-31 renal
[45] = tested on: SK-MEL-5 melanoma
[46] = tested on: T-47D breast
[47] = tested on: SN12C renal
[48] = tested on: IGROV1 ovarian
[49] = tested on: ACHN renal
[50] = tested on: HCC-2998 colon
[51] = tested on: MDA-MB-231 breast
[52] = tested on: SR leukemia
[53] = tested on: PC-3 prostate
[54] = tested on: MCF7 breast
[55] = tested on: SF-539 CNS
[56] = tested on: NCI-H226 lung
[57] = tested on: NCI/ADR-RES ovarian
[58] = tested on: CCRF-CEM leukemia
[59] = tested on: HL-60(TB) leukemia

SMILES: O=[N+]([O-])C(=C/c1cccc2ccccc12)/C(=C\c1cccc2ccccc12)[N+](=O)[O-]
- TGI [1]: 6.05 µM
- TGI [2]: 7.03 µM
- TGI [3]: 7.2 µM
- TGI [4]: 3.95 µM
- TGI [5]: 11.6 µM
- TGI [6]: 4.36 µM
- TGI [7]: 15.5 µM
- TGI [8]: 3.67 µM
- TGI [9]: 4.25 µM
- TGI [10]: 8.25 µM
- TGI [11]: > 58.6 µM
- TGI [12]: 11.5 µM
- TGI [13]: 17.1 µM
- TGI [14]: 4.26 µM
- TGI [15]: 4.68 µM
- TGI [16]: 16 µM
- TGI [17]: 7.29 µM
- TGI [18]: 4.05 µM
- TGI [19]: 55.3 µM
- TGI [20]: > 21.7 µM
- TGI [21]: 11.3 µM
- TGI [22]: 4.5 µM
- TGI [23]: 8.19 µM
- TGI [24]: 7.67 µM
- TGI [25]: 3.72 µM
- TGI [26]: 4.65 µM
- TGI [27]: 5.13 µM
- TGI [28]: 8.77 µM
- TGI [29]: 5.49 µM
- TGI [30]: 21.8 µM
- TGI [31]: 19.1 µM
- TGI [32]: 6.12 µM
- TGI [33]: 4.32 µM
- TGI [34]: 7.06 µM
- TGI [35]: > 25.9 µM
- TGI [36]: 33.5 µM
- TGI [37]: 12.3 µM
- TGI [38]: 3.06 µM
- TGI [39]: 7.92 µM
- TGI [40]: 8.59 µM
- TGI [41]: 5.44 µM
- TGI [42]: 3.23 µM
- TGI [43]: 3.63 µM
- TGI [44]: 3.66 µM
- TGI [45]: 6.45 µM
- TGI [46]: 10.6 µM
- TGI [47]: 6.55 µM
- TGI [48]: 4.13 µM
- TGI [49]: 4.21 µM
- TGI [50]: 5.41 µM
- TGI [51]: 5.14 µM
- TGI [52]: 9.03 µM
- TGI [53]: > 24.3 µM
- TGI [54]: 16.8 µM
- TGI [55]: 5.63 µM
- TGI [56]: 13.7 µM
- TGI [57]: 5.79 µM
- TGI [58]: 4.77 µM

SMILES: COc1ccc(NC/C=C/C(=C/COC(C)=O)OC(C)=O)cc1
- TGI [1]: 0.829 µM
- TGI [2]: 5.18 µM
- TGI [3]: 3.55 µM
- TGI [4]: 5.1 µM
- TGI [5]: 4.99 µM
- TGI [7]: 4.28 µM
- TGI [8]: 3.04 µM
- TGI [9]: 3.87 µM
- TGI [10]: 4.07 µM
- TGI [11]: 33 µM
- TGI [12]: 9.29 µM
- TGI [13]: 6.12 µM
- TGI [14]: 3.16 µM
- TGI [15]: 4.18 µM
- TGI [16]: 1.99 µM
- TGI [17]: 16.1 µM
- TGI [18]: 3.89 µM
- TGI [19]: 5.58 µM
- TGI [20]: 3.4 µM
- TGI [21]: 3.19 µM
- TGI [22]: 3.49 µM
- TGI [23]: 4.97 µM
- TGI [24]: 6.52 µM
- TGI [25]: 2.44 µM
- TGI [26]: 3.74 µM
- TGI [28]: 10.2 µM
- TGI [29]: 5.57 µM
- TGI [30]: 20.5 µM
- TGI [31]: 28.2 µM
- TGI [32]: 3.14 µM
- TGI [33]: 4.53 µM
- TGI [34]: 3.26 µM
- TGI [35]: 3.62 µM
- TGI [36]: 3.53 µM
- TGI [37]: 3.38 µM
- TGI [38]: 4.79 µM
- TGI [39]: 4.8 µM
- TGI [40]: > 100 µM
- TGI [41]: 5.04 µM
- TGI [42]: 14.5 µM
- TGI [43]: 4.78 µM
- TGI [44]: 25 µM
- TGI [45]: 28.8 µM
- TGI [46]: 5.45 µM
- TGI [48]: 3.56 µM
- TGI [49]: 3.29 µM
- TGI [50]: 6.84 µM
- TGI [51]: 3.37 µM
- TGI [52]: 2.71 µM
- TGI [53]: 5.98 µM
- TGI [54]: > 100 µM
- TGI [55]: 3.8 µM
- TGI [56]: 51.7 µM
- TGI [57]: 7.04 µM
- TGI [58]: 5.12 µM

SMILES: CC(=O)N(CC(=O)C(=O)NNc1ccoc1)c1ccc(Cl)cc1
- TGI [1]: > 100 µM
- TGI [2]: > 100 µM
- TGI [3]: > 100 µM
- TGI [4]: > 100 µM
- TGI [5]: > 100 µM
- TGI [6]: > 100 µM
- TGI [7]: > 100 µM
- TGI [8]: > 100 µM
- TGI [9]: > 100 µM
- TGI [10]: > 100 µM
- TGI [11]: > 100 µM
- TGI [12]: > 100 µM
- TGI [13]: > 100 µM
- TGI [14]: > 100 µM
- TGI [15]: > 100 µM
- TGI [16]: > 100 µM
- TGI [17]: > 100 µM
- TGI [18]: > 100 µM
- TGI [19]: > 100 µM
- TGI [20]: > 100 µM
- TGI [21]: > 100 µM
- TGI [22]: > 100 µM
- TGI [23]: > 100 µM
- TGI [24]: > 100 µM
- TGI [25]: > 100 µM
- TGI [26]: > 100 µM
- TGI [27]: > 100 µM
- TGI [28]: > 100 µM
- TGI [29]: > 100 µM
- TGI [30]: > 100 µM
- TGI [31]: > 100 µM
- TGI [32]: > 100 µM
- TGI [33]: > 100 µM
- TGI [34]: > 100 µM
- TGI [35]: > 100 µM
- TGI [37]: > 100 µM
- TGI [38]: > 100 µM
- TGI [39]: > 100 µM
- TGI [40]: > 100 µM
- TGI [41]: > 100 µM
- TGI [43]: > 100 µM
- TGI [44]: > 100 µM
- TGI [45]: > 100 µM
- TGI [46]: > 100 µM
- TGI [47]: > 100 µM
- TGI [48]: > 100 µM
- TGI [49]: > 100 µM
- TGI [50]: > 100 µM
- TGI [51]: > 100 µM
- TGI [52]: > 100 µM
- TGI [53]: > 100 µM
- TGI [54]: > 100 µM
- TGI [55]: > 100 µM
- TGI [56]: > 100 µM
- TGI [57]: > 100 µM
- TGI [58]: > 100 µM

SMILES: Nc1c(Cl)cc(-c2nc3ccccc3s2)cc1Cl
- TGI [2]: > 100 µM
- TGI [3]: > 100 µM
- TGI [4]: > 100 µM
- TGI [5]: > 100 µM
- TGI [7]: > 100 µM
- TGI [8]: > 100 µM
- TGI [9]: > 100 µM
- TGI [10]: > 100 µM
- TGI [11]: > 100 µM
- TGI [12]: > 100 µM
- TGI [13]: > 100 µM
- TGI [14]: > 100 µM
- TGI [16]: > 100 µM
- TGI [17]: > 100 µM
- TGI [18]: > 100 µM
- TGI [19]: > 100 µM
- TGI [20]: > 100 µM
- TGI [21]: > 100 µM
- TGI [22]: > 100 µM
- TGI [23]: > 100 µM
- TGI [24]: > 100 µM
- TGI [25]: > 100 µM
- TGI [26]: > 100 µM
- TGI [27]: > 100 µM
- TGI [28]: > 100 µM
- TGI [29]: > 100 µM
- TGI [30]: > 100 µM
- TGI [31]: > 100 µM
- TGI [32]: > 100 µM
- TGI [59]: > 100 µM
- TGI [33]: > 100 µM
- TGI [35]: > 100 µM
- TGI [39]: > 100 µM
- TGI [40]: > 100 µM
- TGI [41]: > 100 µM
- TGI [42]: > 100 µM
- TGI [43]: > 100 µM
- TGI [44]: > 100 µM
- TGI [45]: > 100 µM
- TGI [46]: > 100 µM
- TGI [47]: > 100 µM
- TGI [48]: > 100 µM
- TGI [49]: > 100 µM
- TGI [50]: > 100 µM
- TGI [51]: > 100 µM
- TGI [52]: > 100 µM
- TGI [53]: > 100 µM
- TGI [54]: > 100 µM
- TGI [55]: > 100 µM
- TGI [56]: > 100 µM
- TGI [57]: > 100 µM
- TGI [58]: > 100 µM

Source: PubChem BioAssay (NCI)
